In patent publication US11285127B2, “Compositions and methods for lowering triglycerides without raising LDL-C levels in a subject on concomitant statin therapy” (Amarin Pharmaceuticals Ireland Limited, priority 2013, dated 2022):

Test system: patients with fasting triglyceride levels >200 mg/dl and <500 mg/dl despite statin therapy
Assay: 12-week study: glucose metabolism (FPG, HbA1c, insulin, HOMA-IR)
Assay type: in vivo, human
Conditions: MITT; for Fasting plasma glucose Percent change from Baseline Median (IQR) / HOMA-IR Percent change from Baseline Median (IQR) / HbAlc Percent change from Baseline Median (IQR) / Insulin Percent change from Baseline Median (IQR): Week 12 EP; for Fasting plasma glucose Percent change from Baseline Median (IQR) / HOMA-IR Percent change from Baseline Median (IQR) / HbAlc Percent change from Baseline Median (IQR) / Insulin Percent change from Baseline Median (IQR) / Fasting plasma glucose Difference from placebo Estimated median / HOMA-IR Difference from placebo Estimated median / HbAlc Difference from placebo Estimated median / Insulin Difference from placebo Estimated median: ANCOVA; for Fasting plasma glucose Difference from placebo Estimated median / HOMA-IR Difference from placebo Estimated median / HbAlc Difference from placebo Estimated median / Insulin Difference from placebo Estimated median: change from baseline to Week 12 EP
Source text: Parameters (a)-(z) can be measured in accordance with any clinically acceptable methodology. For example, triglycerides, total cholesterol, HDL-C and fasting blood sugar can be sample from serum and analyzed using standard photometry techniques. VLDL-TG, LDL-C and VLDL-C can be calculated or determined using serum lipoprotein fractionation by preparative ultracentrifugation and subsequent quantitative analysis by refractometry or by analytic ultracentrifugal methodology. Apo A1, Apo B and hsCRP can be determined from serum using standard nephelometry techniques. Lipoprotein (a) can be determined from serum using standard turbidimetric immunoassay techniques. LDL particle number and particle size can be determined using nuclear magnetic resonance (NMR) spectrometry. Remnants lipoproteins and LDL-phospholipase A2 can be determined from EDTA plasma or serum and serum, respectively, using enzymatic immunoseparation techniques. Oxidized LDL, intercellular adhesion molecule-1 and interleukin-2 levels can be determined from serum using standard enzyme immunoassay techniques. These techniques are described in detail in standard textbooks, for example Tietz Fundamentals of Clinical Chemistry, 6th Ed. (Burtis, Ashwood and Borter Eds.), WB Saunders Company.
A multi-center, placebo-controlled, randomized, double-blind, 12-week study was performed to evaluate the efficacy and safety of >96% E-EPA in patients with fasting triglyceride levels >200 mg/dl and <500 mg/dl despite statin therapy (the mean of two qualifying entry values needed to be >185 mg/dl and at least one of the values needed to be >200 mg/dl). The primary objective of the study was to determine the efficacy of >96% E-EPA 2 g daily and 4 g daily, compared to placebo, in lowering fasting TG levels in patients with high risk for cardiovascular disease and with fasting TG levels 200 mg/dl and <500 mg/dl, despite treatment to LDL-C goal on statin therapy.
The secondary objectives of this study were the following: • 1. To determine the safety and tolerability of >96% E-EPA 2 g daily and 4 g daily; • 2. To determine the effect of >96% E-EPA on lipid and apolipoprotein profiles including total cholesterol (TC), non-high-density lipoprotein cholesterol (non-HDL-C), low density lipoprotein cholesterol (LDL-C), high density lipoprotein cholesterol (HDL-C), and […]; • 3. To determine the effect of >96% E-EPA on lipoprotein associated phospholipase A2 (Lp-PLA2) from baseline to week 12; • 4. To determine the effect of >96% E-EPA on low-density lipoprotein (LDL) particle number and size; • 5. To determine the effect of >96% E-EPA on oxidized LDL; • 6. To determine the effect of >96% E-EPA on fasting plasma glucose (FPG) and hemoglobin A1c (HbA1c); • 7. To determine the effect of >96% E-EPA on insulin resistance; • 8. To determine the effect of >96% E-EPA on high-sensitivity C-reactive protein (hsCRP); • 9. To determine the effects of >96% E-EPA 2 g daily and 4 g daily on the incorporation of fatty acids into red blood cell membranes and into plasma phospholipids; • 10. To explore the relationship between baseline fasting TG levels and the reduction in fasting TG levels; and • 11. To explore the relationship between changes of fatty acid concentrations in plasma and red blood cell membranes, and the reduction in fasting TG levels.
The primary efficacy variable for the double-blind treatment period was percent change in TG from baseline to Week 12 endpoint. […]

## CC/C=C\C/C=C\C/C=C\C/C=C\C/C=C\CCCC(=O)OCC [AMR101, ethyl eicosapentaenoate]
AMR101 2 g/d + statin
  Fasting plasma glucose Week 12 EP Median (IQR): 138.0 (44.9) mg/dL
  HOMA-IR Week 12 EP Median (IQR): 6.4 (4.5)
  HbAlc Week 12 EP Median (IQR): 6.8 (1.2) %
  Insulin Week 12 EP Median (IQR): 18.6 (11.0) μIU/mL
  Fasting plasma glucose Percent change from Baseline Median (IQR): 3.6 (2.1) %
  HOMA-IR Percent change from Baseline Median (IQR): −0.6 (0.4) %
  HbAlc Percent change from Baseline Median (IQR): 0.2 (0.04) %
  Insulin Percent change from Baseline Median (IQR): −1.2 (0.9) %
  Fasting plasma glucose Difference from placebo Estimated median: −0.6 (3.0)
  HOMA-IR Difference from placebo Estimated median: −0.1 (0.5)
  HbAlc Difference from placebo Estimated median: −0.0 (0.05)
  Insulin Difference from placebo Estimated median: −0.1 (1.3)
AMR101 4 g/d + statin
  Fasting plasma glucose Week 12 EP Median (IQR): 141.9 (51.1) mg/dL
  HOMA-IR Week 12 EP Median (IQR): 6.9 (6.7)
  HbAlc Week 12 EP Median (IQR): 6.9 (1.1) %
  Insulin Week 12 EP Median (IQR): 19.0 (16.2) μIU/mL
  Fasting plasma glucose Percent change from Baseline Median (IQR): 8.9 (2.1) %
  HOMA-IR Percent change from Baseline Median (IQR): −0.1 (0.4) %
  HbAlc Percent change from Baseline Median (IQR): 0.3 (0.04) %
  Insulin Percent change from Baseline Median (IQR): −1.1 (0.9) %
  Fasting plasma glucose Difference from placebo Estimated median: 4.7 (3.0)
  HOMA-IR Difference from placebo Estimated median: 0.3 (0.6)
  HbAlc Difference from placebo Estimated median: 0.1 (0.05)
  Insulin Difference from placebo Estimated median: 0.0 (1.3)
